Measured values: ChEMBL document CHEMBL1132981 (J Med Chem, 2000)

Tests used:
[1] = molecular target: Adenosine receptors; A1 & A2b (Homo sapiens) (UniProt P30542+P29275); assay: Selectivity ratio of hA1 to hA2B; type: protein assay
[2] = molecular target: Adenosine receptors; A2b & A3 (Homo sapiens) (UniProt P29275+P0DMS8); assay: Selectivity ratio of hA3 to hA2B; type: protein assay
[3] = molecular target: T1, Adenosine receptor A2b (Homo sapiens, UniProt P29275)
T1 sequence (P29275 whole entry): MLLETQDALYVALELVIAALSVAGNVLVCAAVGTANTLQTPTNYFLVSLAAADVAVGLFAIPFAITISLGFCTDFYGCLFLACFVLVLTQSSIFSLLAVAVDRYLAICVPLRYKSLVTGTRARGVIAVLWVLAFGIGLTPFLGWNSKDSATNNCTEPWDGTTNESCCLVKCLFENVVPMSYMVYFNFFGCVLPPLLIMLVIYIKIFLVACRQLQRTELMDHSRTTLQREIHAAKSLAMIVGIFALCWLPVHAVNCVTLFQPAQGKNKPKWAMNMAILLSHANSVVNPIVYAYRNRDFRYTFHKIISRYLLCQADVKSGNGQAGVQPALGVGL
Description: Antagonist activity against human A2B adenosine receptor expressed in HEK293 cells uisng [3H]ZM-241385 or [125I]-IABOPX

[4] = molecular target: T2, Adenosine receptor A3 (Homo sapiens, UniProt P0DMS8); assay: biochemical
T2 sequence (P0DMS8 whole entry): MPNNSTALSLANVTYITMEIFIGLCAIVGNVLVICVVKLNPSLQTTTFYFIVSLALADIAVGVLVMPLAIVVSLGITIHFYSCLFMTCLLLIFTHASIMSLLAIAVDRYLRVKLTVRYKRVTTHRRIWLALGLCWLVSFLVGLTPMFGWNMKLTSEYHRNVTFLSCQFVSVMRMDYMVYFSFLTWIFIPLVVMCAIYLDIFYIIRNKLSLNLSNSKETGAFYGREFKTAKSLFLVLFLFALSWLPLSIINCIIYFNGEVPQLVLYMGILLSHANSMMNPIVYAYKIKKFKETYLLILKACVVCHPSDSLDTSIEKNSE
Description: Antagonist activity against human adenosine A3 receptor expressed in HEK cells in presence of [125]IAB-MECA or [125I]IABA radioligand.

[5] = molecular target: T3, Adenosine receptor A1 (Homo sapiens, UniProt P30542); assay: biochemical
T3 sequence (P30542 whole entry): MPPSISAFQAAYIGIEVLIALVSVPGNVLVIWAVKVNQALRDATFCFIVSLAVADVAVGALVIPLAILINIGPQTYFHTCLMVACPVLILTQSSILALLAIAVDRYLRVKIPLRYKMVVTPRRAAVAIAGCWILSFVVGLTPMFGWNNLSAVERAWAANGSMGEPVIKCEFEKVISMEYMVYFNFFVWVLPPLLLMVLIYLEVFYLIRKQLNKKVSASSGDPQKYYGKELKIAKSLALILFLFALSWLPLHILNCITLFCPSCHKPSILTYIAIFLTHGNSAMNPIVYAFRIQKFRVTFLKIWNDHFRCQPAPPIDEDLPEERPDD
Description: Antagonist activity against recombinant human adenosine A1 receptor expressed in HEK293 cells in presence of [125I]IABA radioligand.

[6] = molecular target: Adenosine receptor A2a (Homo sapiens, UniProt P29274); assay: biochemical
Sequence of Adenosine receptor A2a (Homo sapiens, UniProt P29274) (P29274 whole entry): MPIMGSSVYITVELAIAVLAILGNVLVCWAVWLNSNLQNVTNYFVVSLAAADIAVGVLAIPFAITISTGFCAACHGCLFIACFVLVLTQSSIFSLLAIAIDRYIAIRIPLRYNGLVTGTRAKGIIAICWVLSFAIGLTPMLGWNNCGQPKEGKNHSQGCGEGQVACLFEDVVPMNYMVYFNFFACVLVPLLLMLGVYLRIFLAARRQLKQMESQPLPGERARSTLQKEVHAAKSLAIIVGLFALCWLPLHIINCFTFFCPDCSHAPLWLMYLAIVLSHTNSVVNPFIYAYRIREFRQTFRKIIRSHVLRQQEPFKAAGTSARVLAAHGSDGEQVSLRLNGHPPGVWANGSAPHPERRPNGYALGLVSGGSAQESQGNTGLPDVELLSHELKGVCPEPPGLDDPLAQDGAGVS
Description: Antagonist activity against recombinant human adenosine A2A receptor expressed in HEK293 cells in presence of [125I]iodo-ZM-241385 radioligand.

[7] = molecular target: Adenosine receptor A2a (Rattus norvegicus, UniProt P30543); assay: biochemical
Sequence of Adenosine receptor A2a (Rattus norvegicus, UniProt P30543) (P30543 whole entry): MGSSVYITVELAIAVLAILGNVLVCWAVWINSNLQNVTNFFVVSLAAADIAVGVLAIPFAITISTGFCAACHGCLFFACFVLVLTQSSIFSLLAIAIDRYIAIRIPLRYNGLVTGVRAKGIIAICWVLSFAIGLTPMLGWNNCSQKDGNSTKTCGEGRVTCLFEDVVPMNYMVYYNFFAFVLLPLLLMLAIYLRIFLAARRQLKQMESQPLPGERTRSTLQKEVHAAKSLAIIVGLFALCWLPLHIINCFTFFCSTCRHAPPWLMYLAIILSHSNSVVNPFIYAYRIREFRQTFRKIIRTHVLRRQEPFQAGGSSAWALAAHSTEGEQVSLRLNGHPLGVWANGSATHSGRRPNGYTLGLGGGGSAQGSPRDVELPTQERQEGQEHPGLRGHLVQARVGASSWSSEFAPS
Description: Antagonist activity against adenosine A2A receptor in rat striatal membrane in presence of [3H]CGS-21680 radioligand.

[8] = molecular target: T4, Adenosine receptor A1 (Rattus norvegicus, UniProt P25099); assay: biochemical
T4 sequence (P25099 whole entry): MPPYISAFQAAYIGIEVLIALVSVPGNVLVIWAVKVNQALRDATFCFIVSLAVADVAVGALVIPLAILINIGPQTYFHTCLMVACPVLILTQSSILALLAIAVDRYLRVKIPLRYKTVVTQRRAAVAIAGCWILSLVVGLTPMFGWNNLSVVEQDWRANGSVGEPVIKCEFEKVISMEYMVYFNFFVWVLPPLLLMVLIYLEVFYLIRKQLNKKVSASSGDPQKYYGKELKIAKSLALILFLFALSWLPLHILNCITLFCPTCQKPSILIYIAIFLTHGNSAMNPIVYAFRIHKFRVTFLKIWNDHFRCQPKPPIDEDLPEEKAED
Description: Antagonist activity against adenosine A1 receptor in rat brain membrane in presence of [3H]R-PIA radioligand.

[9] = molecular target: Adenosine receptor A2a (Rattus norvegicus) (UniProt P30543); assay: Antagonist activity against adenosine A2A receptor in rat striatal membrane using [3H]CGS-21680; type: functional, cell membranes; conditions: Striatum, concentration not given here
Sequence of Adenosine receptor A2a (Rattus norvegicus) (P30543 whole entry): as the sequence (P30543 whole entry) above

[10] = molecular target: T5, Adenosine receptor A2b (Homo sapiens) (UniProt P29275); type: functional, cell-based; conditions: HEK293, 10e-5 M
T5 sequence (whole entry): T1 sequence (P29275 whole entry)

[11] = molecular target: T6, Adenosine receptor A1 (Rattus norvegicus) (UniProt P25099); assay: Antagonist activity against A1 adenosine receptor in rat brain membrane using [3H]-R-PIA at 10e-5 M; type: functional, cell membranes
T6 sequence (whole entry): T4 sequence (P25099 whole entry)

[12] = molecular target: Adenosine receptor A2a (Rattus norvegicus) (UniProt P30543); assay: Antagonist activity against adenosine A2A receptor in rat striatal membrane using [3H]CGS-21680 at 10e-5 M; type: functional, cell membranes; conditions: Striatum
[13] = molecular target: T7, Adenosine receptor A3 (Rattus norvegicus, UniProt P28647); type: functional
T7 sequence (P28647 whole entry): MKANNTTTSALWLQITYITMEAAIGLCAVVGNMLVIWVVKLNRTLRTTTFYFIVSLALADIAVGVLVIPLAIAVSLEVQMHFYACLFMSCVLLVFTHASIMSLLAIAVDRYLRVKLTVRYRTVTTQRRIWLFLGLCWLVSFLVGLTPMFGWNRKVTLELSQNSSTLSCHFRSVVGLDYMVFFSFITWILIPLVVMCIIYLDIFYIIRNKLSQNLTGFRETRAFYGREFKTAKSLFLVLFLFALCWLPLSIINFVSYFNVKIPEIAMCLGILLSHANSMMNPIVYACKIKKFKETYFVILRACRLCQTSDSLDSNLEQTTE

[14] = molecular target: T8, Adenosine receptor A3 (Homo sapiens) (UniProt P0DMS8); type: functional, cell-based; conditions: HEK293, 10e-6 M
T8 sequence (whole entry): T2 sequence (P0DMS8 whole entry)

[15] = molecular target: T6, Adenosine receptor A1 (Rattus norvegicus); assay: Antagonist activity against adenosine A1 receptor in rat brain membrane using [3H]R-PIA at 10e-5 M; type: functional, cell membranes

| Ratio [1] | Ratio [2] | SMILES | further results |
| --- | --- | --- | --- |
| 10 | > 300 | CCCn1c(=O)c2nc(-c3ccc(OCC(=O)Nc4ccc(C(=O)O)cc4)cc3)[nH]c2n(CCC)c1=O |  |
| 70 | 29 | CCCn1c(=O)c2nc(-c3ccc(OCC(=O)N(Cc4ccccc4)Cc4ccccc4)cc3)[nH]c2n(CCC)c1=O |  |
| 57 | 92 | CCCn1c(=O)c2nc(-c3ccc(OCC(=O)Nc4ccc(C(=O)OC)cc4)cc3)[nH]c2n(CCC)c1=O |  |
| 27 | 93 | CCCn1c(=O)c2nc(-c3ccc(OCC(=O)Nc4ccccc4)cc3)[nH]c2n(CCC)c1=O |  |
| 8.1 | 176 | CCCn1c(=O)c2nc(-c3ccc(OCC(=O)Nc4ccc(F)cc4)cc3)[nH]c2n(CCC)c1=O |  |
| 48 | 72 | CCCn1c(=O)c2nc(-c3ccc(OCC(=O)Nc4cccc(C(C)=O)c4)cc3)[nH]c2n(CCC)c1=O |  |
| 110 | 25 | CCCn1c(=O)c2nc(-c3ccc(OCC(=O)NN4C(=O)C(C)=C(C)C4=O)cc3)[nH]c2n(CCC)c1=O |  |

Further lines, the molecule ahead of its results:

| SMILES | Ratio [1] | Ratio [2] | further results |
| --- | --- | --- | --- |
| CCCn1c(=O)c2nc(-c3ccc(OCC(=O)Nc4ccc(C(C)=O)cc4)cc3)[nH]c2n(CCC)c1=O | 110 | 170 |  |
| CCCn1c(=O)c2nc(-c3ccc(/C=C/C(=O)O)cc3)[nH]c2n(CCC)c1=O |  |  | Ki [3]: 60 nM; Ki [4]: 30 nM |
| CCCn1c(=O)c2[nH]c(-c3ccc(OCC(=O)Nc4ccc(C(=O)O)cc4)cc3)nc2n(CCC)c1=O |  |  | Ki [5]: 161 nM; Ki [6]: 39 nM; Ki [4]: > 5000 nM |
| CCCn1c(=O)c2nc(-c3ccc(OCC(=O)Nc4ccc([N+](=O)[O-])cc4)cc3)[nH]c2n(CCC)c1=O | 38 | 91 |  |
| CCn1c(=O)c2[nH]c(-c3ccc(OCC(=O)Nc4ccc(CC(=O)NCCN)cc4)cc3)nc2n(CC)c1=O |  |  | Ki [3]: 15.2 nM; Ki [7]: 1370 nM; Ki [8]: 65 nM |
| CCCn1c(=O)c2nc(-c3ccc(OCC(=O)NC(c4ccccc4)c4ccccc4)cc3)[nH]c2n(CCC)c1=O |  |  | inhibition [9]: 20% |
| CC(=O)c1ccccc1NC(=O)/C=C/c1ccc(-c2nc3c(=O)n(CC4CCCCC4)c(=O)n(CC4CCCCC4)c3[nH]2)cc1 |  |  | Displacement [10]: < 10%; Displacement [11]: < 10%; Displacement [12]: < 10% |
| CCCCn1c(=O)c2[nH]c(-c3ccc(OCC(=O)O)cc3)nc2n(CCCC)c1=O |  |  | Ki [13]: 27500 nM |
| CCCn1c(=O)c2nc(-c3ccc(OCC(=O)Nc4ccc(C(F)(F)F)cc4)cc3)[nH]c2n(CCC)c1=O | 29 | 100 |  |
| CCCn1c(=O)c2nc(-c3ccc(OCC(=O)Nc4ccc(I)cc4)cc3)[nH]c2n(CCC)c1=O | 140 | 600 |  |
| CCn1c(=O)c2nc(-c3ccc(OCC(=O)Nc4ccc(C)cc4)cc3)[nH]c2n(CC)c1=O |  |  | Displacement [14]: < 10% |
| CCCn1c(=O)c2nc(-c3ccc(OCC(=O)Nc4ccccc4C(C)=O)cc3)[nH]c2n(CCC)c1=O | 120 | 23 |  |
| CCCn1c(=O)c2[nH]c(-c3ccc(OCC(=O)Nc4ccc(F)cc4)cc3)nc2n(CCC)c1=O |  |  | Ki [8]: 272 nM |
| C=CCn1c(=O)c2nc(-c3ccc(OCC(=O)O)cc3)[nH]c2n(CC=C)c1=O | 12 | 5.8 |  |
| CCCn1c(=O)c2nc(-c3ccc(OCC(=O)Nc4ccc(Br)cc4)cc3)[nH]c2n(CCC)c1=O | 31 | 980 |  |
| CCCCn1c(=O)c2nc(-c3ccc(OCC(=O)O)cc3)[nH]c2n(CCCC)c1=O | 3.1 | 1.9 |  |
| CC(=O)c1ccccc1NC(=O)/C=C/c1ccc(-c2nc3c(=O)n(Cc4ccccc4)c(=O)n(Cc4ccccc4)c3[nH]2)cc1 |  |  | Displacement [10]: < 10%; Displacement [12]: < 10% |
| CC(=O)c1ccccc1NC(=O)COc1ccc(-c2nc3c(=O)n(Cc4ccccc4)c(=O)n(Cc4ccccc4)c3[nH]2)cc1 |  |  | Displacement [10]: < 10%; Displacement [15]: < 10%; Displacement [12]: < 10% |
| CCCn1c(=O)c2[nH]c(-c3ccc(OCC(=O)Nc4ccc(C(N)=O)cc4)cc3)nc2n(CCC)c1=O |  |  | Ki [5]: 161 nM; Ki [6]: 39 nM |
| CCCn1c(=O)c2nc(-c3ccc(OCC(=O)Nc4ccc(Cl)cc4)cc3)[nH]c2n(CCC)c1=O | 20 | 760 |  |
| O=C(O)/C=C/c1ccc(-c2nc3c(=O)n(CC4CCCCC4)c(=O)n(CC4CCCCC4)c3[nH]2)cc1 | 25 | 4.6 | Ki [7]: < 10 nM |
| O=C(O)COc1ccc(-c2nc3c(=O)n(Cc4ccccc4)c(=O)n(Cc4ccccc4)c3[nH]2)cc1 |  |  | inhibition [9]: 25% |
